According to ChEMBL document CHEMBL1255447, “Efflux pumps, OprD porin, AmpC beta-lactamase, and multiresistance in Pseudomonas aeruginosa isolates from cystic fibrosis patients” (2010):
In brackets after ≈: the same amount, converted by molar mass.

Tested on: Pseudomonas aeruginosa
Assay: Antimicrobial activity against Pseudomonas aeruginosa isolate 1681c from fibrosis patient by Etest
Assay type: functional
Conditions: not given

SMILES | MIC [µg/mL]
CC(C)(O/N=C(\C(=O)N[C@@H]1C(=O)N2C(C(=O)[O-])=C(C[n+]3ccccc3)CS[C@H]12)c1csc(N)n1)C(=O)O [CEFTAZIDIME] | 256 (≈ 468 µM)

Tested on: Pseudomonas aeruginosa
Assay: Antimicrobial activity against Pseudomonas aeruginosa isolate 1665 from fibrosis patient by Etest
Assay type: functional
Conditions: not given

SMILES | MIC [µg/mL]
CC(C)(O/N=C(\C(=O)N[C@@H]1C(=O)N2C(C(=O)[O-])=C(C[n+]3ccccc3)CS[C@H]12)c1csc(N)n1)C(=O)O [CEFTAZIDIME] | 256 (≈ 468 µM)

Tested on: Pseudomonas aeruginosa
Assay: Antimicrobial activity against Pseudomonas aeruginosa isolate 17112 from fibrosis patient by Etest
Assay type: functional
Conditions: not given

SMILES | MIC [µg/mL]
CC(C)(O/N=C(\C(=O)N[C@@H]1C(=O)N2C(C(=O)[O-])=C(C[n+]3ccccc3)CS[C@H]12)c1csc(N)n1)C(=O)O [CEFTAZIDIME] | 64 (≈ 117 µM)

Tested on: Pseudomonas aeruginosa
Assay: Antimicrobial activity against Pseudomonas aeruginosa isolate 14169c from fibrosis patient by Etest
Assay type: functional
Conditions: not given

SMILES | MIC [µg/mL]
CC(C)(O/N=C(\C(=O)N[C@@H]1C(=O)N2C(C(=O)[O-])=C(C[n+]3ccccc3)CS[C@H]12)c1csc(N)n1)C(=O)O [CEFTAZIDIME] | 8 (≈ 14.6 µM)

Tested on: Pseudomonas aeruginosa
Assay: Antimicrobial activity against Pseudomonas aeruginosa isolate 1352c from fibrosis patient by Etest
Assay type: functional
Conditions: not given

SMILES | MIC [µg/mL]
CC(C)(O/N=C(\C(=O)N[C@@H]1C(=O)N2C(C(=O)[O-])=C(C[n+]3ccccc3)CS[C@H]12)c1csc(N)n1)C(=O)O [CEFTAZIDIME] | 64 (≈ 117 µM)

Tested on: Pseudomonas aeruginosa
Assay: Antimicrobial activity against Pseudomonas aeruginosa R70 Etest
Assay type: functional
Conditions: not given

SMILES | MIC [µg/mL]
CC(C)(O/N=C(\C(=O)N[C@@H]1C(=O)N2C(C(=O)[O-])=C(C[n+]3ccccc3)CS[C@H]12)c1csc(N)n1)C(=O)O [CEFTAZIDIME] | 8 (≈ 14.6 µM)

Tested on: Pseudomonas aeruginosa
Assay: Antimicrobial activity against Pseudomonas aeruginosa isolate 17145c from fibrosis patient by Etest
Assay type: functional
Conditions: not given

SMILES | MIC [µg/mL]
CC(C)(O/N=C(\C(=O)N[C@@H]1C(=O)N2C(C(=O)[O-])=C(C[n+]3ccccc3)CS[C@H]12)c1csc(N)n1)C(=O)O [CEFTAZIDIME] | 64 (≈ 117 µM)

Tested on: Pseudomonas aeruginosa
Assay: Antimicrobial activity against Pseudomonas aeruginosa isolate 12102 from fibrosis patient by Etest
Assay type: functional
Conditions: not given

SMILES | MIC [µg/mL]
CC(C)(O/N=C(\C(=O)N[C@@H]1C(=O)N2C(C(=O)[O-])=C(C[n+]3ccccc3)CS[C@H]12)c1csc(N)n1)C(=O)O [CEFTAZIDIME] | 4 (≈ 7.32 µM)

Tested on: Pseudomonas aeruginosa
Assay: Antimicrobial activity against Pseudomonas aeruginosa isolate 1726 from fibrosis patient by Etest
Assay type: functional
Conditions: not given

SMILES | MIC [µg/mL]
CC(C)(O/N=C(\C(=O)N[C@@H]1C(=O)N2C(C(=O)[O-])=C(C[n+]3ccccc3)CS[C@H]12)c1csc(N)n1)C(=O)O [CEFTAZIDIME] | 2 (≈ 3.66 µM)

Tested on: Pseudomonas aeruginosa
Assay: Antimicrobial activity against Pseudomonas aeruginosa 1405-con D2 by Etest
Assay type: functional
Conditions: not given

SMILES | MIC [µg/mL]
CC(C)(O/N=C(\C(=O)N[C@@H]1C(=O)N2C(C(=O)[O-])=C(C[n+]3ccccc3)CS[C@H]12)c1csc(N)n1)C(=O)O [CEFTAZIDIME] | 64 (≈ 117 µM)

Tested on: Pseudomonas aeruginosa
Assay: Antimicrobial activity against Pseudomonas aeruginosa isolate 1712c from fibrosis patient by Etest
Assay type: functional
Conditions: not given

SMILES | MIC [µg/mL]
CC(C)(O/N=C(\C(=O)N[C@@H]1C(=O)N2C(C(=O)[O-])=C(C[n+]3ccccc3)CS[C@H]12)c1csc(N)n1)C(=O)O [CEFTAZIDIME] | > 256

Tested on: Pseudomonas aeruginosa
Assay: microbe, parasite or virus in culture
Conditions: isolate 13120
Description: Antimicrobial activity against Pseudomonas aeruginosa isolate 13120 from fibrosis patient by Etest

SMILES | MIC [µg/mL]
CC(C)(O/N=C(\C(=O)N[C@@H]1C(=O)N2C(C(=O)[O-])=C(C[n+]3ccccc3)CS[C@H]12)c1csc(N)n1)C(=O)O [CEFTAZIDIME] | 4 (≈ 7.32 µM)

Tested on: Pseudomonas aeruginosa
Assay: Antimicrobial activity against Pseudomonas aeruginosa isolate 1248c from fibrosis patient by Etest
Assay type: functional
Conditions: not given

SMILES | MIC [µg/mL]
CC(C)(O/N=C(\C(=O)N[C@@H]1C(=O)N2C(C(=O)[O-])=C(C[n+]3ccccc3)CS[C@H]12)c1csc(N)n1)C(=O)O [CEFTAZIDIME] | 256 (≈ 468 µM)

Tested on: Pseudomonas aeruginosa
Assay: Antimicrobial activity against Pseudomonas aeruginosa isolate 3149 from fibrosis patient by Etest
Assay type: functional
Conditions: not given

SMILES | MIC [µg/mL]
CC(C)(O/N=C(\C(=O)N[C@@H]1C(=O)N2C(C(=O)[O-])=C(C[n+]3ccccc3)CS[C@H]12)c1csc(N)n1)C(=O)O [CEFTAZIDIME] | 8 (≈ 14.6 µM)

Tested on: Pseudomonas aeruginosa
Assay: microbe, parasite or virus in culture
Conditions: 2779-con
Description: Antimicrobial activity against Pseudomonas aeruginosa 2779-con by Etest

SMILES | MIC [µg/mL]
CC(C)(O/N=C(\C(=O)N[C@@H]1C(=O)N2C(C(=O)[O-])=C(C[n+]3ccccc3)CS[C@H]12)c1csc(N)n1)C(=O)O [CEFTAZIDIME] | 32 (≈ 58.5 µM)

Tested on: Pseudomonas aeruginosa
Assay: Antimicrobial activity against Pseudomonas aeruginosa isolate 1240 from fibrosis patient by Etest
Assay type: functional
Conditions: not given

SMILES | MIC [µg/mL]
CC(C)(O/N=C(\C(=O)N[C@@H]1C(=O)N2C(C(=O)[O-])=C(C[n+]3ccccc3)CS[C@H]12)c1csc(N)n1)C(=O)O [CEFTAZIDIME] | 256 (≈ 468 µM)

Tested on: Pseudomonas aeruginosa
Assay: Antimicrobial activity against Pseudomonas aeruginosa isolate 12142c from fibrosis patient by Etest
Assay type: functional
Conditions: not given

SMILES | MIC [µg/mL]
CC(C)(O/N=C(\C(=O)N[C@@H]1C(=O)N2C(C(=O)[O-])=C(C[n+]3ccccc3)CS[C@H]12)c1csc(N)n1)C(=O)O [CEFTAZIDIME] | 256 (≈ 468 µM)

Tested on: Pseudomonas aeruginosa
Assay: Antimicrobial activity against Pseudomonas aeruginosa isolate 1495c from fibrosis patient by Etest
Assay type: functional
Conditions: not given

SMILES | MIC [µg/mL]
CC(C)(O/N=C(\C(=O)N[C@@H]1C(=O)N2C(C(=O)[O-])=C(C[n+]3ccccc3)CS[C@H]12)c1csc(N)n1)C(=O)O [CEFTAZIDIME] | > 256

Tested on: Pseudomonas aeruginosa
Assay: Antimicrobial activity against Pseudomonas aeruginosa Z799/61 by Etest
Assay type: functional
Conditions: not given

SMILES | MIC [µg/mL]
CC(C)(O/N=C(\C(=O)N[C@@H]1C(=O)N2C(C(=O)[O-])=C(C[n+]3ccccc3)CS[C@H]12)c1csc(N)n1)C(=O)O [CEFTAZIDIME] | ≤ 0.12

Tested on: Pseudomonas aeruginosa
Assay: Antimicrobial activity against Pseudomonas aeruginosa isolate 1333c from fibrosis patient by Etest
Assay type: functional
Conditions: not given

SMILES | MIC [µg/mL]
CC(C)(O/N=C(\C(=O)N[C@@H]1C(=O)N2C(C(=O)[O-])=C(C[n+]3ccccc3)CS[C@H]12)c1csc(N)n1)C(=O)O [CEFTAZIDIME] | 128 (≈ 234 µM)

Tested on: Pseudomonas aeruginosa
Assay: Antimicrobial activity against Pseudomonas aeruginosa M1251 by Etest
Conditions: not given

SMILES | MIC [µg/mL]
CC(C)(O/N=C(\C(=O)N[C@@H]1C(=O)N2C(C(=O)[O-])=C(C[n+]3ccccc3)CS[C@H]12)c1csc(N)n1)C(=O)O [CEFTAZIDIME] | 4 (≈ 7.32 µM)

Tested on: Pseudomonas aeruginosa
Assay: Antimicrobial activity against Pseudomonas aeruginosa AHP Etest
Assay type: functional
Conditions: not given

SMILES | MIC [µg/mL]
CC(C)(O/N=C(\C(=O)N[C@@H]1C(=O)N2C(C(=O)[O-])=C(C[n+]3ccccc3)CS[C@H]12)c1csc(N)n1)C(=O)O [CEFTAZIDIME] | 0.5 (≈ 0.915 µM)

Tested on: Pseudomonas aeruginosa
Assay: Antimicrobial activity against Pseudomonas aeruginosa isolate 15110c from fibrosis patient by Etest
Assay type: functional
Conditions: not given

SMILES | MIC [µg/mL]
CC(C)(O/N=C(\C(=O)N[C@@H]1C(=O)N2C(C(=O)[O-])=C(C[n+]3ccccc3)CS[C@H]12)c1csc(N)n1)C(=O)O [CEFTAZIDIME] | 256 (≈ 468 µM)

Tested on: Pseudomonas aeruginosa
Assay: Antimicrobial activity against Pseudomonas aeruginosa isolate 1253 from fibrosis patient by Etest
Assay type: functional
Conditions: not given

SMILES | MIC [µg/mL]
CC(C)(O/N=C(\C(=O)N[C@@H]1C(=O)N2C(C(=O)[O-])=C(C[n+]3ccccc3)CS[C@H]12)c1csc(N)n1)C(=O)O [CEFTAZIDIME] | 8 (≈ 14.6 µM)

Tested on: Pseudomonas aeruginosa
Assay: Antimicrobial activity against Pseudomonas aeruginosa isolate 1529c from fibrosis patient by Etest
Assay type: functional
Conditions: not given

SMILES | MIC [µg/mL]
CC(C)(O/N=C(\C(=O)N[C@@H]1C(=O)N2C(C(=O)[O-])=C(C[n+]3ccccc3)CS[C@H]12)c1csc(N)n1)C(=O)O [CEFTAZIDIME] | 4 (≈ 7.32 µM)

Tested on: Pseudomonas aeruginosa
Assay: Antimicrobial activity against Pseudomonas aeruginosa isolate 1530c from fibrosis patient by Etest
Assay type: functional
Conditions: not given

SMILES | MIC [µg/mL]
CC(C)(O/N=C(\C(=O)N[C@@H]1C(=O)N2C(C(=O)[O-])=C(C[n+]3ccccc3)CS[C@H]12)c1csc(N)n1)C(=O)O [CEFTAZIDIME] | 4 (≈ 7.32 µM)

Tested on: Pseudomonas aeruginosa
Assay: Antimicrobial activity against Pseudomonas aeruginosa isolate 1247c from fibrosis patient by Etest
Assay type: functional
Conditions: not given

SMILES | MIC [µg/mL]
CC(C)(O/N=C(\C(=O)N[C@@H]1C(=O)N2C(C(=O)[O-])=C(C[n+]3ccccc3)CS[C@H]12)c1csc(N)n1)C(=O)O [CEFTAZIDIME] | 8 (≈ 14.6 µM)

Tested on: Pseudomonas aeruginosa
Assay: Antimicrobial activity against Pseudomonas aeruginosa isolate 13167 from fibrosis patient by Etest
Assay type: functional
Conditions: not given

SMILES | MIC [µg/mL]
CC(C)(O/N=C(\C(=O)N[C@@H]1C(=O)N2C(C(=O)[O-])=C(C[n+]3ccccc3)CS[C@H]12)c1csc(N)n1)C(=O)O [CEFTAZIDIME] | 64 (≈ 117 µM)

Tested on: Pseudomonas aeruginosa
Assay: Antimicrobial activity against Pseudomonas aeruginosa isolate 1693c from fibrosis patient by Etest
Assay type: functional
Conditions: not given

SMILES | MIC [µg/mL]
CC(C)(O/N=C(\C(=O)N[C@@H]1C(=O)N2C(C(=O)[O-])=C(C[n+]3ccccc3)CS[C@H]12)c1csc(N)n1)C(=O)O [CEFTAZIDIME] | 8 (≈ 14.6 µM)

Tested on: Pseudomonas aeruginosa
Assay: Antimicrobial activity against Pseudomonas aeruginosa isolate 15107 from fibrosis patient by Etest
Assay type: functional
Conditions: not given

SMILES | MIC [µg/mL]
CC(C)(O/N=C(\C(=O)N[C@@H]1C(=O)N2C(C(=O)[O-])=C(C[n+]3ccccc3)CS[C@H]12)c1csc(N)n1)C(=O)O [CEFTAZIDIME] | 8 (≈ 14.6 µM)
